Source: patent US20130116209A1, “METHOD FOR SELECTION OF CHEMOTHERAPEUTIC AGENTS FOR ADENOCARCINOMA CANCER” (VENTANA MEDICAL SYSTEMS, INC., priority 2011, published 2013)

Experiments:
[1] = test system: pancreatic adenocarcinoma; assay: Retrospective RTOG 9704 study: tumor hENT1 expression (IHC, SP120 antibody) versus overall survival after adjuvant gemcitabine or 5FU; type: in vivo, human; details: for OS of Low hENT1 subgroup compared to High hENT1 subgroup / OS across High, Mid and No hENT1 subgroups: Method Six; for OS across High, Mid and No hENT1 subgroups: three subgroups (FIG. 2 score sheet), FIGS. 33-34
Method: The RTOG 9704 study and its results are further described in Regine, W. F. et al. (2008) JAMA 299(9):1019-1026; Regine, W. F. et al. (2011) Ann. Surg. Oncol. 18:1319-1326.
Formalin-fixed, paraffin-embedded (FFPE) specimens have been retrieved from tissue repositories. The specimens were obtained from patients prior to adjuvant therapy. Tissue was processed into tissue microarrays (TMA) at the RTOG Biospecimen Resource center and IHC staining was performed in a central laboratory (Ventana Medical Systems). Stained slides were interpreted by pathologists blind to study outcomes.
Samples have been centralized within the RTOG Biospecimen Resource facility. Tissue micro arrays (TMA) were also constructed in the RTOG Biospecimen Resource facility. Three cores from each tumor specimen were arrayed on three separate TMAs. A total of 220 cases were arrayed on the TMAs.
Slides from TMAs were prepared and forwarded to the core pathology laboratory (Ventana Medical Systems), and stained by SP120 rabbit monoclonal antibody for detection of hENT1 protein according to established methods. The following parameters were recorded for each specimen based on scoring by a pathologist blinded to the patient's clinical characteristics and outcome: • Intensity of staining (e.g. 0=no stain, 1+=weakly positive, 2+=moderately positive, 3+=strongly positive) • Percentage of tumor cells with staining at each intensity level (% of tumor tissue specifically excluding non-malignant cells/regions) • Pattern of staining (segmented or diffuse) • Cellular compartment (membrane or cytoplasm).

pancreatic cancer = details: Stage III/IV disease, gemcitabine monotherapy, unresectable pancreatic cancer; cited from earlier work
[2] = FIG. 3 algorithm (50% of tumor with membrane staining at 10×), FIGS. 4-5
[3] = FIG. 6 algorithm (PP at 2×, 4×, 10× and negative tumor <=50%), FIGS. 7-8

| SMILES | median OS as hENT1 expression increases from No to Low to High ([1]; Method Five (percent negative staining), FIG. 18) | median OS as hENT1 expression increases from Negative to Weak to Moderate to Strong ([1]; Method Four (staining intensity), FIG. 30) | median OS as hENT1 expression (H-score subgroup) increases ([1]; Method One (H-score), FIG. 22) | OS of Low hENT1 subgroup compared to High hENT1 subgroup [1, 2] | OS of Low hENT1 subgroup compared to High hENT1 subgroup [1, 3] | OS across High, Mid and No hENT1 subgroups [1] | median OS as hENT1 expression increases from Negative to Segmental to Diffuse ([1]; Method Three (staining pattern), FIG. 26) | OS of No hENT1 subgroup compared to Low and High hENT1 subgroups ([1]; Method Five, FIG. 19) | OS of combined Low and High hENT1 subgroup compared to No hENT1 subgroup ([1]; Method Five, FIG. 20) | OS of negative hENT1 subgroup compared to Weak, Moderate or Strong subgroups ([1]; Method Four, FIG. 31) | OS of H-score<=20 subgroup compared to H-score 20-80 and >=80 subgroups ([1]; Method One, FIG. 23) | OS of H-score>=50 patients compared to H-score <50 patients ([1]; Method One, FIG. 24) | OS of negative hENT1 subgroup compared to Segmental or Diffuse subgroups ([1]; Method Three, FIG. 27) | OS of patients with detectable hENT1 (S or D) compared to no hENT1 expression ([1]; Method Three, FIG. 28) | OS of subgroup N, 20× or 40× compared to subgroup PP at 2×, 4× or 10× ([1]; Method Two (magnification), FIGS. 15-16) | median OS (pancreatic cancer) |
| --- | --- | --- | --- | --- | --- | --- | --- | --- | --- | --- | --- | --- | --- | --- | --- | --- |
| O=c1[nH]cc(F)c(=O)[nH]1 [5FU, 5-Fluorouracil] | do not demonstrate an improvement in OS | do not demonstrate an improvement in OS | do not demonstrate an improvement in OS | do not demonstrate improvement in OS | do not demonstrate improvement in OS | do not demonstrate improvement in OS | do not demonstrate an improvement in OS |  |  |  |  |  |  |  |  |  |
| Nc1ccn([C@@H]2O[C@H](CO)[C@@H](O)C2(F)F)c(=O)n1 [gemcitabine] |  |  |  | shorter OS | shorter OS | No hENT1 expression exhibited the shortest OS followed by the Mid hENT1 subgroup and the High hENT1 subgroup had the longest OS |  | shorter OS | longer OS | shorter OS | shorter OS | longer OS | shorter OS | longer OS | shorter OS | 5-7 months |
